Experimental data as given in patent publication US7691382B2, “Antiviral polypeptides comprising tandem repeats of APOE 141-149 and variants thereof” (priority 2003, dated 2010).
Like-named read-outs stand apart in the source and are kept apart here. Peptide text beside a SMILES is read from it.

Test system: HSV1
Assay type: cell-based, Human herpes simplex virus type 1
Conditions: for efficacy for reducing HSV1 infectivity (in words): Examples 2 and 3
Experimental: African Green Monkey Kidney (Vero) cells were maintained in Eagle's minimum essential medium with Earle's salt (EMEM) and supplemented with 10% foetal calf serum (heat-inactivated), 4 mM L-glutamine, and 1% (v/v) nonessential amino acids, plus penicillin and streptomycin (100 IU/mg and […], respectively) (maintenance medium referred to as 10% EMEM). The cells were incubated at 37° C. in a humidified atmosphere of air with 5% CO2.
On harvesting, monolayers were washed in phosphate-buffered saline (PBS), and dislodged by incubating with trypsin in PBS for 30 min, before inactivating trypsin by addition of an equal volume of 10% EMEM and centrifuging at 500 g (5 min, 4° C.). Cell pellets were resuspended in 10% EMEM, prior to cell counting and seeding of 24-well plates. For antiviral assays, medium containing only 0.5% FCS was used (referred to as 0.5% EMEM).
Three separate passages of HSV1 virus were prepared by infecting Vero cells, and preparing semi-pure suspensions of virus from tissue culture supernatant and cell lysates, before freezing aliquots of virus at −85° C. Viral infectivity was assessed by carrying out plaque assays on serial dilutions of thawed aliquots (expressed in pfu/ml).
Peptides were obtained in lyophilised form from a commercial supplier (AltaBioscience, University of Birmingham or Advanced Biomedical), and were produced at 5 micromole scale. N-terminals were protected by addition of an acetyl group, and the C-terminals were protected by addition of an amide group.
Small quantities of peptide were weighed in sterile Eppendorf tubes, before addition of sufficient 0.5% EMEM to produce a 1.5 mM stock solution, which was frozen at −20° C. in aliquots.
Vero cells were seeded at 125,000 cells per well in 10% EMEM, and were incubated overnight resulting in confluent monolayers. […] Virus stocks (p3) were thawed, and diluted in 0.5% EMEM such that there were around 100 pfu in 100 μl. Each 24-well plate was inoculated separately. Firstly 100 μl of virus stock was added to the peptide or control medium arranged on a 96-well plate. This was incubated at 37° C. for ten minutes before inoculation. Medium was removed from four wells of a 24-well plate containing confluent Vero, and the 200 μl inoculum added to the appropriate well. Once all wells were treated, the 24-well plate was incubated for a further 60-80 minutes. Finally the peptide-containing inoculum was removed, and 1 ml of 1% EMEM containing 1% carboxymethylcellulose was added to each well. Plates were incubated for a further 22 hours or in some experiments 40 hours, before removal of overlay, and addition of 10% formaldehyde in PBS. After a further one hour incubation, fixative was removed, monolayers washed several times with tap water, and stained with carbol fuchsin solubilised in water. After 30 minutes stain was removed, and plates washed several times with tap water, before being air dried. Plaques were counted using an Olympus IX70 Inverting Microscope, and antiviral effect expressed as a percentage of the control value for each peptide concentration. The IC50 was calculated from plots of inhibitory effect against peptide concentration.

Molecule | IC50 | efficacy for reducing HSV1 infectivity (in words) | IC50 (HSV1, Vero cells, Table 4 (Example 2), read-out: Apparent IC50) | IC50 (HSV-1, Vero cells, Table 6 (Example 3), read-out: IC50)
CC(=O)N[C@@H](Cc1c[nH]c2ccccc12)C(=O)N[C@@H](CCCNC(=N)N)C(=O)N[C@@H](CCCCN)C(=O)N[C@@H](Cc1c[nH]c2ccccc12)C(=O)N[C@@H](CCCNC(=N)N)C(=O)N[C@@H](CCCCN)C(=O)N[C@@H](CCCNC(=N)N)C(=O)N[C@@H](Cc1c[nH]c2ccccc12)C(=O)N[C@@H](Cc1c[nH]c2ccccc12)C(=O)N[C@@H](CCCNC(=N)N)C(=O)N[C@@H](CCCCN)C(=O)N[C@@H](Cc1c[nH]c2ccccc12)C(=O)N[C@@H](CCCNC(=N)N)C(=O)N[C@@H](CCCCN)C(=O)N[C@@H](CCCNC(=N)N)C(=O)N[C@@H](Cc1c[nH]c2ccccc12)C(=O)N[C@@H](Cc1c[nH]c2ccccc12)C(N)=O [MU 58] (Ac-WRKWRKRWWRKWRKRWW-NH2) | 4.25 µM |  |  | 
CC(=O)N[C@@H](CCCNC(=N)N)C(=O)N[C@@H](CCCNC(=N)N)C(=O)N[C@@H](CCCCN)C(=O)N[C@@H](CCCNC(=N)N)C(=O)N[C@@H](CCCNC(=N)N)C(=O)N[C@@H](CCCCN)C(=O)N[C@@H](CCCNC(=N)N)C(=O)N[C@@H](CCCNC(=N)N)C(=O)N[C@@H](CCCNC(=N)N)C(=O)N[C@@H](CCCNC(=N)N)C(=O)N[C@@H](CCCNC(=N)N)C(=O)N[C@@H](CCCCN)C(=O)N[C@@H](CCCNC(=N)N)C(=O)N[C@@H](CCCNC(=N)N)C(=O)N[C@@H](CCCCN)C(=O)N[C@@H](CCCNC(=N)N)C(=O)N[C@@H](CCCNC(=N)N)C(=O)N[C@@H](CCCNC(=N)N)C(N)=O [MU 16] (Ac-RRKRRKRRRRRKRRKRRR-NH2) | 7.5 µM |  |  | 
CSCC[C@H](NC(=O)[C@H](CCSC)NC(=O)[C@H](CCCNC(=N)N)NC(=O)[C@H](CCCCN)NC(=O)[C@H](CCCNC(=N)N)NC(=O)[C@H](CCSC)NC(=O)[C@H](CCCCN)NC(=O)[C@H](CCCNC(=N)N)NC(=O)[C@H](CCSC)NC(=O)[C@H](CCSC)NC(=O)[C@H](CCSC)NC(=O)[C@H](CCCNC(=N)N)NC(=O)[C@H](CCCCN)NC(=O)[C@H](CCCNC(=N)N)NC(=O)[C@H](CCSC)NC(=O)[C@H](CCCCN)NC(=O)[C@H](CCCNC(=N)N)NC(=O)[C@H](CCSC)NC(C)=O)C(N)=O [GIN 40] (Ac-MRKMRKRMMMRKMRKRMM-NH2) | > 30 µM |  |  | 
CC(=O)N[C@@H](CC(C)C)C(=O)N[C@@H](CCCNC(=N)N)C(=O)N[C@@H](CCCCN)C(=O)N[C@@H](CC(C)C)C(=O)N[C@@H](CCCNC(=N)N)C(=O)N[C@@H](CCCCN)C(=O)N[C@@H](CCCNC(=N)N)C(=O)N[C@@H](CC(C)C)C(=O)N[C@@H](CC(C)C)C(=O)N[C@@H](CC(C)C)C(=O)N[C@@H](CCCNC(=N)N)C(=O)N[C@@H](CCCCN)C(N)=O [GIN 5] (Ac-LRKLRKRLLLRK-NH2) | > 40 µM | no, or poor, efficacy |  | 
CSCC[C@H](NC(=O)[C@H](CCC(=O)O)NC(=O)[C@H](CCC(=O)O)NC(=O)[C@H](CCSC)NC(=O)[C@H](CCCNC(=N)N)NC(=O)[C@H](C)NC(=O)[C@H](CCCNC(=N)N)NC(=O)[C@H](CC(C)C)NC(=O)[C@H](CCCNC(=N)N)NC(=O)[C@H](CCSC)NC(=O)[C@H](CCC(=O)O)NC(=O)[C@H](CCC(=O)O)NC(=O)[C@H](CCSC)NC(=O)[C@H](CCCNC(=N)N)NC(=O)[C@H](C)NC(=O)[C@H](CCCNC(=N)N)NC(=O)[C@H](CC(C)C)NC(=O)[C@H](CCCNC(=N)N)NC(C)=O)C(N)=O [GIN 15] (Ac-RLRARMEEMRLRARMEEM-NH2) | > 40 µM | no, or poor, efficacy |  | 
CC(=O)N[C@@H](CC(C)C)C(=O)N[C@@H](CCCNC(=N)N)C(=O)N[C@@H](CCCCN)C(=O)N[C@@H](CC(C)C)C(=O)N[C@@H](CCCNC(=N)N)C(=O)N[C@@H](CCCCN)C(=O)N[C@@H](CCCNC(=N)N)C(=O)N[C@@H](CC(C)C)C(=O)N[C@@H](CCCNC(=N)N)C(=O)N[C@@H](CCCCN)C(=O)N[C@@H](CC(C)C)C(=O)N[C@@H](CCCNC(=N)N)C(=O)N[C@@H](CCCCN)C(=O)N[C@@H](CCCNC(=N)N)C(N)=O [GIN 8] (Ac-LRKLRKRLRKLRKR-NH2) | 13 µM | had efficacy |  | 
CC(=O)N[C@@H](Cc1ccc(O)cc1)C(=O)N[C@@H](CCCNC(=N)N)C(=O)N[C@@H](CCCCN)C(=O)N[C@@H](Cc1ccc(O)cc1)C(=O)N[C@@H](CCCNC(=N)N)C(=O)N[C@@H](CCCCN)C(=O)N[C@@H](CCCNC(=N)N)C(=O)N[C@@H](Cc1ccc(O)cc1)C(=O)N[C@@H](Cc1ccc(O)cc1)C(=O)N[C@@H](Cc1ccc(O)cc1)C(=O)N[C@@H](CCCNC(=N)N)C(=O)N[C@@H](CCCCN)C(=O)N[C@@H](Cc1ccc(O)cc1)C(=O)N[C@@H](CCCNC(=N)N)C(=O)N[C@@H](CCCCN)C(=O)N[C@@H](CCCNC(=N)N)C(=O)N[C@@H](Cc1ccc(O)cc1)C(=O)N[C@@H](Cc1ccc(O)cc1)C(N)=O [GIN 41] (Ac-YRKYRKRYYYRKYRKRYY-NH2) |  | also had efficacy |  | 
CC(=O)N[C@@H](CC(C)C)C(=O)N[C@@H](CCCNC(=N)N)C(=O)N[C@@H](CCCCN)C(=O)N[C@@H](CCCNC(=N)N)C(=O)N[C@@H](CC(C)C)C(=O)N[C@@H](CC(C)C)C(=O)N[C@@H](CC(C)C)C(=O)N[C@@H](CCCNC(=N)N)C(=O)N[C@@H](CCCCN)C(=O)N[C@@H](CC(C)C)C(=O)N[C@@H](CCCNC(=N)N)C(=O)N[C@@H](CCCCN)C(=O)N[C@@H](CCCNC(=N)N)C(=O)N[C@@H](CC(C)C)C(=O)N[C@@H](CC(C)C)C(N)=O [GIN 2] (Ac-LRKRLLLRKLRKRLL-NH2) | > 40 µM | no, or poor, efficacy |  | 
CC(=O)N[C@@H](CCCNC(=N)N)C(=O)N[C@@H](CC(C)C)C(=O)N[C@@H](CC(C)C)C(=O)N[C@@H](CCCNC(=N)N)C(=O)N[C@@H](CC(C)C)C(=O)N[C@@H](CC(C)C)C(=O)N[C@@H](CCCNC(=N)N)C(=O)N[C@@H](CC(C)C)C(=O)N[C@@H](CC(C)C)C(=O)N[C@@H](CCCNC(=N)N)C(=O)N[C@@H](CC(C)C)C(=O)N[C@@H](CC(C)C)C(=O)N[C@@H](CCCNC(=N)N)C(=O)N[C@@H](CC(C)C)C(=O)N[C@@H](CC(C)C)C(=O)N[C@@H](CCCNC(=N)N)C(=O)N[C@@H](CC(C)C)C(=O)N[C@@H](CC(C)C)C(N)=O [GIN 10] (Ac-RLLRLLRLLRLLRLLRLL-NH2) |  | no, or poor, efficacy | 39 µM | 39 µM
CC(=O)N[C@@H](CCC(=O)O)C(=O)N[C@@H](CCCNC(=N)N)C(=O)N[C@@H](CCCCN)C(=O)N[C@@H](CCC(=O)O)C(=O)N[C@@H](CCCNC(=N)N)C(=O)N[C@@H](CCCCN)C(=O)N[C@@H](CCCNC(=N)N)C(=O)N[C@@H](CCC(=O)O)C(=O)N[C@@H](CCC(=O)O)C(=O)N[C@@H](CCC(=O)O)C(=O)N[C@@H](CCCNC(=N)N)C(=O)N[C@@H](CCCCN)C(=O)N[C@@H](CCC(=O)O)C(=O)N[C@@H](CCCNC(=N)N)C(=O)N[C@@H](CCCCN)C(=O)N[C@@H](CCCNC(=N)N)C(=O)N[C@@H](CCC(=O)O)C(=O)N[C@@H](CCC(=O)O)C(N)=O [GIN 6] (Ac-ERKERKREEERKERKREE-NH2) | > 40 µM | no, or poor, efficacy |  | 
ARKARKRAAARKARKRAA [GIN 39] |  | abolished antiviral activity |  | 
